Measured values from PMC8903076 (Journal of medicinal chemistry, 2021).

Biological target: human GCGR (Homo sapiens, UniProt P47871)
Assay: CRE-luciferase reporter assay
Assay type: cell-based
Settings: HEK293 cells stably expressing human GCGR

Chain of human GCGR (P47871 26-477): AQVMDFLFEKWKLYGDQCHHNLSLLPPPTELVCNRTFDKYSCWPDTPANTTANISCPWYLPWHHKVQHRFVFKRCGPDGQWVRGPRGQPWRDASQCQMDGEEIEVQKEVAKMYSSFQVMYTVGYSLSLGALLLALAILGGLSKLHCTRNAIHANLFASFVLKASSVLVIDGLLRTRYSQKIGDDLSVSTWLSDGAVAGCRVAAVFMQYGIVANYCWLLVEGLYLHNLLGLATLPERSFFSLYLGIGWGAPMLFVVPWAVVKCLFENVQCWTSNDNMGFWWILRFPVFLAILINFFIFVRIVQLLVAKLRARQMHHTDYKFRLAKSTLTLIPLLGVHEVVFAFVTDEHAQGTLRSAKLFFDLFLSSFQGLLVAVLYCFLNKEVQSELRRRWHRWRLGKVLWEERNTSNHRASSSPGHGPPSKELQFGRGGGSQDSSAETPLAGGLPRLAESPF

activity in activating GCGR (in words): completely lost the activity
Substance: H-HAibQGTFTSDYSKYLDSRRAQDFVK^TailWLX^1T-NH2 [compound 18]
